Experimental findings from EP1004309A1, “ISRAPAFANT-CONTAINING WATER-BASE PREPARATIONS” (Senju Pharmaceutical Co., Ltd., priority 1997, dated 1998) are described below.

≈ marks a conversion by molar mass, not a printed value. Entries after “also recorded” stand apart in the source; their conditions may differ. Bounds are passed on as bounds.

A word on the solubility: it is the concentration that dissolves in the medium under given conditions. High values mean much dissolved substance, low ones little dissolved substance. The term inhibition denotes the share of the control response that was lost under treatment.

In series [1] the test system is guinea pig active sensitization allergic conjunctivitis. Description: Suppressive effect against eosinophil infiltration into conjunctiva (late phase reaction). The class given is in vivo. On the procedure:
(§1) Male Hartley guinea pigs weighing about 300 g purchased from Japan SLC. Ltd. were used. These animals had free access to a solid feed (γ ray irradiated feed LRC4, ORIENTAL YEAST CO., LTD.) and tap water, and were bred in a breeding chamber set to a temperature 23 ±2°C and humidity 55±15%.
(§2) Israpafant (manufactured by Yoshitomi Pharmaceutical Industries, Ltd.) was suspended in a vehicle (pH 5) shown below at a concentration of 1% to give an eye drop suspension. In addition, a suspension of israpafant in 0.5% CMC at 10 mg/ml was prepared for oral administration. As a control, physiological saline was used.
In the same manner as in 1), sensitization and induction by first challenge and second challenge were performed.
The drug was evaluated by removing the eye ball at 6 hours after the second challenge, preparing an optical microscopic specimen according to a conventional method, staining eosinophils by Luna staining, and counting and averaging the number of eosinophils infiltrated into conjunctiva with regard to each of 6 visible areas (one visible area being 0.04 mm^2) of the vicinity of conjunctival lymphoid tissue. The drug was administered in the same manner as in 1).
(§3) • physiological saline (control group) • 1.0% israpafant (instillation group) • 10 mg/kg israpafant p.o. (oral group) • 1 mg/kg mepyramine i.v. (intravenous injection group) • 1.0% israpafant + 1 mg/kg mepyramine i.v. (concurrent instillation group) • 10 mg/kg israpafant p.o.+1 mg/kg mepyramine i.v. (concurrent instillation group)

The test system is the same in series [2]. Description: Suppressive effect against immediate allergic conjunctivitis signs (early phase reaction), total score. The class given is in vivo. The note with it: 1% israpafant instillation 10 µl one eye at 2, 4, 8 hours after first challenge and 3, 2, 1 hour before second challenge; 20 minutes after second challenge; versus physiological saline control. On the procedure:
as §1, §2
In the same manner as in 1), sensitization and induction by the first challenge and the second challenge were performed. […]

Series [3] in a line: Solubility in water. The class given is physicochemical. To be noted: water at 25°C.
Series [4] in a line: Dissolution test: solubility of israpafant in buffers, by HPLC. The note with it: 0.1% acetate, phosphate and borate buffers, 25 °C, aqueous buffer, thermodynamic from solid; each buffer (pH 4, 5, 6, 7, 8 and 9); below detection limit by HPLC. The class given is physicochemical. On the procedure:
Israpafant (manufactured by Yoshitomi Pharmaceutical Industries, Ltd.) was suspended in 0.1% acetate buffer (pH 4, 5, 6), phosphate buffer (pH 6, 7, 8) and borate buffer (pH 8, 9) in a concentration of 0.1% (w/v%, hereinafter the same). Each suspension was filled in a glass ampoule by 5 ml and shaken at 25°C overnight (ca. 15 hours). After passing through a 0.45 µm membrane filter, the solubility of israpafant was measured by HPLC.
(§4) • column: YMC AM-302 (4.6×150 mm) • mobile phase: acetonitrile:0.1M ammonium acetate-87:13 • detection: UV 244 nm • column temperature:35°C • flow rate: 0.7 ml/min • internal standard:1,3,5-triphenylbenzene

Series [5] in a line: Dissolution test: solubility of israpafant in aqueous solutions containing additives, by HPLC. The class given is physicochemical. To be noted: for solubility: 0.1% phosphate buffer with dissolved additive, 25 °C, pH 7, aqueous with cosolvent or surfactant or cyclodextrin, thermodynamic from solid. The method, then: In 0.1% phosphate buffer (pH 7) were dissolved the additives shown in Table 2 in a proportion of 0.5% (0.5% and 4% in the sole case of polysorbate). In the same manner as above, israpafant was suspended and dissolved, after which the solubility of israpafant was measured by HPLC.
as §4

Series [6] relates to rat PAF conjunctivitis. The series can be described thus: Rat PAF conjunctivitis, conjunctival dye-leakage after eye drop. The note with it: for inhibition: dye leakage; for amount of dye leakage: instillation 5 µl at 1, 2 hours before PAF, mean±standard error. The class given is in vivo. On the procedure: Male Wistar rats weighing about 130 g purchased from Clea Japan, Inc. were used. They were bred at temperature 23±2°C and humidity 55±15%.
Israpafant was suspended at 0.03, 0.1, 0.3 and 1.0%. Physiological saline was used for the control group.
The formulation of the vehicle for an israpafant eye drop was as shown below, wherein the pH of the eye drop at each concentration was 7.0.
PAF diluted to 4 µg/ml was administered to the upper subconjunctiva of the rat by 25 µl and at the same time, 0.5% Evans' blue (0.5 ml) was intravenously administered. Thirty minutes later, the dye-leakage part of the conjunctiva was excised and the dye was extracted with formamide, after which absorbance (625 nm) was measured. The test drug was administered by instillation (5 µl) to the eye at 1, 2 hours before subconjunctival induction of PAF.

Series [7] concerns guinea pig active sensitization allergic conjunctivitis. Description: Suppressive effect against promotion of conjunctival vascular permeability (early phase reaction), dye-leakage. The class given is in vivo. The note with it: 30 minutes after second challenge. On the procedure: as §1, §2
Guinea pigs were sensitized with a dispersion of 10 µg ovalbumin (OA) and 30 mg aluminum hydroxide gel by peritoneal administration. At 14 days after the sensitization, a 2.5% OA antigen solution was instilled into the both eyes by 10 µl to induce allergic conjunctivitis (first challenge). At 20 minutes after the last challenge, conjunctivitis signs were observed and the animals were grouped in such a manner that the severity of the condition was equalized from the degrees of chemosis, conjunctival injection and tearing.
The evaluation of a drug included the following steps. At 24 hours from the first challenge, 10 mg/kg Evans' blue was intravenously administered, and a 2.5% OA antigen solution was instilled into the both eyes by 10 µl to again induce conjunctivitis (the second challenge). Thirty minutes later, conjunctival dye-leakage part was excised, the parts of the both eyes were combined and the amount of the leaked dye was measured. The drug was instilled into the both eyes by 10 µl at 3, 2, 1 hour before the second challenge in the case of administration by instillation. In the case of an oral administration, 10 mg/kg was administered once at 1 hour before the second challenge. For suppression of histamine reaction, 1 mg/kg of mepyramine was intravenously administered one minute before.
as §3

Regarding `Cc1nnc2n1-c1sc(CCc3ccc(CC(C)C)cc3)cc1C(c1ccccc1Cl)=NC2C` (stereo not drawn) [israpafant, 4-(2-Chlorophenyl)-2-[2-(4-isobutylphenyl)ethyl]-6,9-dimethyl-6H-thieno[3,2-f][1,2,4]triazolo[4,3-a][1,4]diazepine], the “suppressive effect on eosinophil infiltration (in words)” value in series [1] (10 mg/kg israpafant p.o. (oral group), 6 hours after second challenge) is reported as “no suppressive effect; also recorded: no effect was found; also recorded: no effect was observed”; in series [1] (10 mg/kg israpafant p.o. + 1 mg/kg mepyramine i.v. (concurrent oral administration group), almost the same as mepyramine alone) it was “suppressive effect”; in series [1] (1.0% israpafant instillation + 1 mg/kg mepyramine i.v. (concurrent instillation group), almost the same as mepyramine alone), “suppressive effect”. Besides, the eosinophil infiltration count in series [1] (1.0% israpafant instillation, 6 hours after second challenge, control 95.3) worked out at 71.8 cell/0.04 mm^2. In addition, the “total score of conjunctivitis signs” value in series [2] is “significant decrease”. Moreover, in series [3], the solubility in water entry was “less than 0.01 w/v%”. For the same molecule, the solubility in series [4] was < 0.05 µg/mL; in series [5] (0.5% BAK in 0.1% phosphate buffer (pH 7)) it was 99 µg/mL (≈ 202 µM); in series [5] (0.5% HCO60 in 0.1% phosphate buffer (pH 7)), 47.3 µg/mL (≈ 96.7 µM); in series [5] (0.5% HPMC in 0.1% phosphate buffer (pH 7)), 0.6 µg/mL (≈ 1.23 µM); in series [5] (0.5% PVA(EG40) in 0.1% phosphate buffer (pH 7)), 0.4 µg/mL (≈ 0.818 µM); in series [5] (0.5% SDS in 0.1% phosphate buffer (pH 7)) it was 1060 µg/mL (≈ 2160 µM). Besides, the figures for the solubility in series [5] (0.5% Tyloxapol in 0.1% phosphate buffer (pH 7)), in series [5] (0.5% polysorbate 80 in 0.1% phosphate buffer (pH 7)) and in series [5] (polysorbate 80 (4% aq. solution) in 0.1% phosphate buffer (pH 7)) were 29.5 µg/mL (≈ 60.3 µM), 66.9 µg/mL (≈ 137 µM) and 581 µg/mL (≈ 1190 µM), respectively. For the same molecule, the “dissolution (in words)” value in series [5] (0.5% aqueous sodium dodecylsulfate solution) is listed as “dissolved extremely well”; in series [5] (4% aqueous polysorbate solution), “dissolved extremely well”; in series [5] (aqueous solution containing a water soluble polymer or cyclodextrin), “did not dissolve”; in series [5] (aqueous surfactant solution), “dissolved well”. Moreover, the inhibition is 19.1% in series [6] (eye drop suspension 0.03% (dose 3 µg)), 29.6% in series [6] (eye drop suspension 0.1% (dose 10 µg)), 41.6% in series [6] (eye drop suspension 0.3% (dose 30 µg)) and 53.2% in series [6] (eye drop suspension 1.0% (dose 100 µg)). Moreover, the “amount of dye leakage” value in series [6] (eye drop suspension 0.03% (dose 3 µg), saline 40.03±2.57) came out at 32.29±3.31 µg/site; in series [6] (eye drop suspension 0.1% (dose 10 µg), p<0.01), 28.17±1.42 µg/site; in series [6] (eye drop suspension 0.3% (dose 30 µg), p<0.01), 23.37±2.56 µg/site; in series [6] (eye drop suspension 1.0% (dose 100 µg), p<0.01), 18.74±2.20 µg/site. For the same molecule, the dye-leakage turned out to be 10.1 µg/two eye balls in series [7] (10 mg/kg israpafant p.o. + 1 mg/kg mepyramine i.v. (oral concurrent group)); 25.3 µg/two eye balls in series [7] (10 mg/kg israpafant p.o. once 1 hour before second challenge, control 34.5 µg); 24.7 µg/two eye balls in series [7] (1.0% israpafant eye drop suspension, instillation 10 µl both eyes at 3, 2, 1 hour before second challenge, control 34.5 µg); 11.0 µg/two eye balls in series [7] (1.0% israpafant instillation + 1 mg/kg mepyramine i.v. (concurrent instillation group)).
For `COc1ccc(CN(CCN(C)C)c2ccccn2)cc1` [mepyramine, reference compound], in series [1] (1 mg/kg mepyramine i.v., 6 hours after second challenge), the “suppressive effect on eosinophil infiltration (in words)” value was “suppressive effect”. For the same molecule, the dye-leakage in series [7] (1 mg/kg mepyramine i.v. one minute before, control 34.5 µg) was determined as 17.5 µg/two eye balls.
